The text below walks through data of patent publication US5421897A, “Abatement process for contaminants” (priority 1992, dated 1995).

Series [1] in a line: Time required to form solid-state, sodium silicofluoride added to Neoprene 671 latex. It counts as physicochemical. The source says:
If the overspray method is not preferred, an in-situ solidifying compound can be used that reduces the application process to a single step. To effect in-situ transformation from the liquid to the solid state, about 0.25 to about 6 parts of a solidifying compound such as ammonium silicofluoride, sodium silicofluoride, or potassium silicofluoride per hundred parts solid resin (phr) may be added to the liquid-state composition as a finely ground (e.g., ball milled) dispersion just prior to application.
The time required to form a solid-state will vary according to concentration of solidifying compound and polymer type. By way of example, when sodium silicofluoride was added to Neoprene 671 latex, the following results were attained.

For series [2], the system named is gpg. The conditions noted are these: orl-gpg; cited from earlier work.
The next series relates to man. The settings on record: cited from earlier work.
For series [3] the following is noted: C.A. 100:116031y; cited from earlier work.
For series [4] the following is noted: C.A. 101:205528d; cited from earlier work.
The test system of another series is mus. The conditions noted are these: scu-mus; cited from earlier work.
For series [5] the following is noted: 25° C.; cited from earlier work.
Series [6] has as its system gpg. Briefly: Oral toxicity orl-gpg LDLo (lead toxicity mitigation). The conditions noted are these: transformation of lead oxide to lead sulfide.
Series [7] can be described thus: Copper oxide cleaning (Example 5), painted cinder block. The conditions noted are these: weight loss. On the procedure: Samples of coarse, deep pore cinder block (2×2×1/2 inch) were sealed by spray applying a 4-7 mil wet film thickness coating of interior, semigloss alkyd paint. The coated samples were air dried at ambient temperature for 7 days and subsequently cured at 150° F. for 8 hours. A 5% dispersion of copper oxide in hexane was spray applied until the dry copper oxide up-take reached approximately 250 mg/sample. After spraying, the samples were allowed to dry at ambient temperature for 24 hours, whereupon 20-25 wet mils of the liquid-state composition were spray applied over the contaminated surfaces. After 10 minutes, the liquid-statecomposition was scrubbed into the surface using the circular action of a nylon dental brush. After 20 scrub cycles, the brush was removed, and an additional 25-30 mils wet film thickness of liquid-state composition were spray applied over the treated area. After drying for 24 hours at ambient temperature, the solid-state matrix was removed and the reverse side was inspected. […] The larger matrix projections reached 0.6 to 0.9 mm in length. […] A subtle discoloration of the white alkyd paint (graying) was noted. Weight-loss measurements indicated 78% removal of CuO. […]

Another series deals with dog. The conditions noted are these: scu-dog; cited from earlier work.
For series [8] the following is noted: C.A. 98:100331a; cited from earlier work.
For series [9] the following is noted: C.A. 103:136646t; cited from earlier work.
The conditions of series [10]: C.A. 95:36562k; cited from earlier work.
The conditions of series [11]: C.A. 96:47119t, 101:189850v; cited from earlier work.
The conditions of series [12]: Sax, 6th Ed., P. 347; cited from earlier work.

Where two headings read alike, the source gives them in different places.

Regarding `F[Si-2](F)(F)(F)(F)F.[Na+].[Na+]` [Sodium Silicofluoride, sodium silicofluoride], the “Time Required to Form Solid-State” value in series [1] (2 phr added to Neoprene 671 latex) was determined as 150 min; in [1] (2.5 phr added to Neoprene 671 latex), 18 min; in [1] (3 phr added to Neoprene 671 latex), 7 min; in series [1] (4 phr added to Neoprene 671 latex), 5 min.

On to `[Cl][Pb][Cl]` [Lead chloride], for which, in the series with gpg [2], the LDLo was 2000 mg/kg.

As for `[Sb]` [Antimony], the LDLo with man (unk.-man) was 15 mg/kg.

Take `[SH-].[SH-].[S]=[Mo]=[S]` [Tetrathiomolybdate (VI)]: the “antidotal activity for copper” value in series [3] is listed as “provides antidotal activity for copper”.

Take `O=C(O)c1ccccc1C(=O)NCC(S)CS` (centres unmarked) [N-(2,3-dimercaptopropyl)phthalamidic acid]: the “antidotal activity for sodium arcenate” value in [4] is recorded as “provides antidotal activity for sodium arcenate”.

Regarding Formaldehyde Hydrosulfate, in the series with mus, the LDLo is 3000 mg/kg and the toxicity grade entry is recorded as “Moderate toxicity”. The Vapor pressure result in [5] is given as “No vapor pressure”.

With `[S]=[Pb]` [lead sulfide], the LDLo in the series on gpg [2] is reported as 10 gm/Kg. In the series on gpg [6], this molecule registered a reduction in toxicity of 10 fold.

`O=P([O-])([O-])[O-].[Na+].[Na+].[Na+]` [trisodiumphosphate]: the “removal of CuO” value in [7] is listed as 55%.

As for `[Cu]` [Copper], in the series on man (orl-hmn), the TDLo was 0.12 mg/kg.

On to `[Cr]` [Chromium], for which, in the series on dog, the LDLo is on record as 330 mg/kg.

On to `[Cd]` [Cadmium], for which the TCLo in the series on man (inhl-man) is 40 μg/m^3.

On to `O=Cc1ccc(O)cc1O` [2,4-dihydroxybenzaldehyde], for which, in series [8], the “spray-on reagent for identification of arsenic III” value is recorded as “useful as a spray-on reagent for the identification of arsenic III”.

Consider `O=C(O)CN(CC(=O)O)CC(=O)O` [N,N-bis(carboxymethyl)glycine], for which, in [9], the “antidotal activity for chromium” value is reported as “provides antidotal activity for chromium”.

Take `O=C([O-])[O-].O=C([O-])[O-].[OH-].[OH-].[Pb+2].[Pb+2].[Pb+2]` [White lead]: the Symptoms result in the series on man (in vivo) is on record as “Same as lead halides”. Besides, the TDLo in the series on man (orl-man) was 214 mg/kg.

With `O=C(O)C(S)C(S)C(=O)O` (centres unmarked) [2,3-dimercaptosuccinic acid], the “antidotal activity for antimony” value in series [10] is reported as “provides antidotal activity for antimony”.

The term LD50 denotes the dose expected to kill half of the subjects tested. With `C=O` [Formaldehyde], in the series with mus, the LD50 is on record as 300 mg/kg and the toxicity grade result is recorded as “Severe toxicity”. For the same molecule, in series [5], the Vapor pressure was 0.187 kPa.

Take lead oxide: the LDLo with gpg [2] was 1000 mg/kg.

For the molecule `[Ba]` [Barium], the LDLo in the series with man (orl-hmm) is listed as 11.4 mg/kg.

With `O=P(O)(O)O[C@H]1[C@H](OP(=O)(O)O)[C@@H](OP(=O)(O)O)[C@H](OP(=O)(O)O)[C@@H](OP(=O)(O)O)[C@H]1OP(=O)(O)O` [Sodium phytate], the antidotal activity result in series [11] was “provides antidotal activity”.

Take Barium sulfate: the acute toxicity entry in [12] was “not being acutely toxic”.
